Measurements published in paper PMC6100582 (Molecules : A Journal of Synthetic Chemistry and Natural …, 2018).
≈ marks a conversion by molar mass, not a printed value. Read-outs that look alike come from different tables or passages of the source.

Columns and labels:
Para-Influenza-3 Virus = experiment: organism not typed; format: cell-based
Punta Toro Virus = experiment: microbe, parasite or virus in culture; format: cell-based
Yellow Fever Virus = experiment: microbe, parasite or virus in culture; format: cell-based; settings: Vero
Reovirus-1 = experiment: Antiviral activity in Vero cell cultures; format: cell-based
Coxsackie Virus B4 = experiment: Antiviral activity in Vero cell cultures; format: cell-based; settings: Enterovirus B
Sindbis Virus = experiment: microbe, parasite or virus in culture; format: cell-based; settings: Vero
Vero cell cultures = settings: African green monkey
in vitro = settings: African green monkey
[1] = system: Hap1 (chronic myeloid leukemia); experiment: Antiproliferative screening (cytostatic activity); format: cell-based; settings: Homo sapiens, HAP1, 72 h, read-out: IC50 Hap1
Protocol: (§1) Cytostatic activity was evaluated in vitro on nine different types of human tumor cell lines: Capan-1, Hap1, HCT-116, and NCI-H460, as well as hematological tumors such as DND-41, HL-60, K-562, MM.1S and Z-138 as described previously. All human tumor cell lines were acquired from the American Type Culture Collection (ATCC, Manassas, VA, USA), except for the DND-41 cell line which was purchased from the Deutsche Sammlung von Mikroorganismen und Zellkulturen (DSMZ Leibniz-Institut, Braunschweig, Germany) and the Hap1 cell line which was purchased from Horizon Discovery (Waterbeach, UK). Capan-1, Hap1, HL-60, K-562, Z-138, MM.1S and DND-41 were cultured in Iscove′s Modified Dulbecco′s Medium (IMDM, Gibco Life Technologies, Gaithersburg, MD, USA), HCT-116 were grown in McCoy′s 5A Medium (Gibco Life Technologies) and NCI-H460 were cultured in RPMI (Gibco Life Technologies). All media were supplemented with 10% FBS (HyClone, GE Healthcare Life Sciences, USA). Adherent cell lines HCT-116, Hap1, NCI-H460, and Capan-1 cells were seeded at a density between 400 and 1250 cells per well, in 384-well, black-walled, clear-bottomed tissue culture plates (Greiner Bio-One, Kremsmünster, Germany). After overnight incubation, cells were treated with test compounds at four different concentrations ranging from 100 to 0.8 µM. Suspension cell lines HL-60, K-562, Z-138, MM.1S, and DND-41 were seeded at densities ranging from 3000 to 10,000 cells per well in 384-well, black-walled, clear-bottomed tissue culture plates containing test compounds at the same four concentrations. The plates were incubated and monitored at 37 °C for 72 h in an IncuCyte (Essen BioScience Inc., Ann Arbor, MI, USA) for real-time imaging. Images were taken every 3 h, with one field image per well under 10× magnification. All compounds were tested with duplicate data points and averaged. […]

[2] = system: HL-60 (acute myeloid leukemia); experiment: Antiproliferative screening (cytostatic activity); format: cell-based; settings: Homo sapiens, HL-60, 72 h, read-out: IC50 HL-60
Protocol: as §1

[3] = system: Streptococcus pneumonia MFBF 10373; experiment: Minimum biofilm eradication assay; format: cell-based, Streptococcus pneumoniae
Protocol: (§2) MBECs of fumardiamides 4a–f and succindiamides 5a–f were determined as follows. Each well (96-well plate) was filled with 100 µl of bacterial (10^7 CFU/mL) or yeast (5 × 10^6 CFU/mL) suspension. When the inhibition of yeast biofilm formation was tested, the wells were pre-treated with fetal bovine serum (FBS) (250 µl per well). Negative controls contained broth only. Positive controls were performed using standard antimicrobial drugs gentamycin (Gen) and Amph, respectively. […] Following incubation period, each well was aspirated, washed three times and vigorously shaken to remove all non-adherent bacteria/yeast. The remaining attached cells were fixed with methanol (15 min) and the plates were left to dry overnight. Formed biofilm was stained with crystal violet (1%, 5 min). Excess stain was rinsed by placing the plate under running tap water and the plates were left to dry. Adherent cells were solubilized using ethanol. The absorbance was read at 570 nm. The MBEC value represents the lowest dilution of a compound at which bacteria fail to grow.

[4] = system: DND-41 (acute lymphoblastic leukemia); experiment: Antiproliferative screening (cytostatic activity); format: cell-based, human; settings: Homo sapiens, DND41, 72 h, read-out: IC50 DND-41
Protocol: as §1

[5] = system: HCT-116 (colorectal carcinoma); experiment: Antiproliferative screening (cytostatic activity); format: cell-based; settings: Homo sapiens, HCT-116, 72 h, read-out: IC50 HCT-116
Protocol: (§3) All human tumor cell lines were acquired from the American Type Culture Collection (ATCC, Manassas, VA, USA), except for the DND-41 cell line which was purchased from the Deutsche Sammlung von Mikroorganismen und Zellkulturen (DSMZ Leibniz-Institut, Braunschweig, Germany) and the Hap1 cell line which was purchased from Horizon Discovery (Waterbeach, UK). […] All media were supplemented with 10% FBS (HyClone, GE Healthcare Life Sciences, USA). […] After overnight incubation, cells were treated with test compounds at four different concentrations ranging from 100 to 0.8 µM. […] Images were taken every 3 h, with one field image per well under 10× magnification. All compounds were tested with duplicate data points and averaged.

MM.1S (multiple myeloma) = experiment: Antiproliferative screening (cytostatic activity); format: cell-based; settings: Homo sapiens, MM1.S, 72 h, read-out: IC50 MM.1S
Protocol: as §3

[6] = system: K-562 (chronic myeloid leukemia); experiment: Antiproliferative screening (cytostatic activity); format: cell-based; settings: Homo sapiens, K562, 72 h, read-out: IC50 K-562
Protocol: as §3

[7] = system: NCI-H460 (lung carcinoma); experiment: Antiproliferative screening (cytostatic activity); format: cell-based; settings: Homo sapiens, NCI-H460, 72 h, read-out: IC50 NCI-H460
Protocol: as §3

[8] = system: Z-138 (non-Hodgkin lymphoma); experiment: Antiproliferative screening (cytostatic activity); format: cell-based; settings: Homo sapiens, Z-138, 72 h, read-out: IC50 Z-138
Protocol: as §3

[9] = system: Capan-1 (pancreatic adenocarcinoma); experiment: Antiproliferative screening (cytostatic activity); format: cell-based; settings: Homo sapiens, CAPAN-1, 72 h, read-out: IC50 Capan-1
Protocol: as §3

[10] = system: Escherichia coli ATCC 10536; experiment: Minimum biofilm eradication assay; format: cell-based
Protocol: as §2

[11] = system: Serratia marcescens ATCC 10905; experiment: Minimum biofilm eradication assay; format: cell-based
Protocol: as §2

[12] = system: Pseudomonas aeruginosa ATCC 27853; experiment: Minimum biofilm eradication assay; format: cell-based
Protocol: as §2

[13] = system: Salmonella enteritidis MFBF 11945; experiment: Minimum biofilm eradication assay; format: cell-based
Protocol: as §2

[14] = system: Acinetobacter baumannii MFBF 10913; experiment: Minimum biofilm eradication assay; format: cell-based
Protocol: as §2

[15] = system: Proteus mirabilis MFBF 10430; experiment: Minimum biofilm eradication assay; format: cell-based
Protocol: as §2

[16] = system: Bacillus subtilis ATCC 6633; experiment: Minimum biofilm eradication assay; format: cell-based
Protocol: as §2

[17] = system: Enterococcus faecalis ATCC 29212; experiment: Minimum biofilm eradication assay; format: cell-based
Protocol: as §2

[18] = system: Staphylococcus aureus ATCC 6538; experiment: Minimum biofilm eradication assay; format: cell-based
Protocol: as §2

[19] = system: Bacillus cereus ATCC 11778; experiment: Minimum biofilm eradication assay; format: cell-based
Protocol: as §2

[20] = system: Staphylococcus aureus ATCC 6538; experiment: Antimicrobial susceptibility assay in vitro (MIC determination); format: cell-based; settings: ATCC6538
[21] = system: Streptococcus pneumoniae MFBF 10373; experiment: as above; format: cell-based; settings: MFBF10373, serial microdilution, 18 h, 35 °C
Protocol: (§4) Stock solutions of the tested compounds were prepared in DMSO (10 mg/mL). […] The absorbance was recorded at 540 nm. As a positive quality control (susceptibility of strains) tetracycline hydrochloride (TC) (Sigma-Aldrich) was added into wells.

[22] = system: Acinetobacter baumannii MFBF 10913; experiment: as above; format: cell-based; settings: MFBF10913, serial microdilution, 18 h, 35 °C
Protocol: as §4

[23] = system: Bacillus subtilis ATCC 6633; experiment: as above; format: cell-based; settings: ATCC6633, serial microdilution, 18 h, 35 °C
Protocol: as §4

[24] = system: Bacillus cereus ATCC 11778; experiment: as above; format: cell-based; settings: ATCC11778, serial microdilution, 18 h, 35 °C
Protocol: as §4

[25] = system: Candida albicans ATCC 90028; experiment: In vitro antifungal susceptibility testing (MIC determination); format: cell-based; settings: ATCC90028
[26] = Vero cells, MTS, read-out: EC50 Para-Influenza-3 Virus, MTS
[27] = Vero cells, MTS, read-out: EC50 Punta Toro Virus, MTS
[28] = read-out: EC50 Yellow Fever Virus, MTS
[29] = read-out: EC50 Yellow Fever Virus, Visual CPE Score
[30] = Vero cells, MTS, read-out: EC50 Reovirus-1, MTS
[31] = Vero cells, visual CPE score, read-out: EC50 Reovirus-1, Visual CPE Score
[32] = B4, Vero cells, MTS, read-out: EC50 Coxsackie Virus B4, MTS
[33] = B4, Vero cells, visual CPE score, read-out: EC50 Coxsackie Virus B4, Visual CPE Score
[34] = read-out: EC50 Sindbis Virus, MTS
[35] = read-out: EC50 Sindbis Virus, Visual CPE Score

Compound	EC50 (Para-Influenza-3 Virus; [26]) [µM]	EC50 (Punta Toro Virus; [27]) [µM]	EC50 (Yellow Fever Virus; [28]) [µM]	EC50 (Yellow Fever Virus; [29]) [µM]	EC50 (Reovirus-1; [30]) [µM]	EC50 (Reovirus-1; [31]) [µM]	EC50 (Coxsackie Virus B4; [32]) [µM]	EC50 (Coxsackie Virus B4; [33]) [µM]	EC50 (Sindbis Virus; [34]) [µM]	EC50 (Sindbis Virus; [35]) [µM]	CC50 (in vitro) [µg/mL]	MBEC [3] [µg/mL]	MBEC [10] [µg/mL]	MBEC [11] [µg/mL]	MBEC [12] [µg/mL]	MBEC [13] [µg/mL]	MBEC [14] [µg/mL]	MBEC [15] [µg/mL]	MBEC [16] [µg/mL]	MBEC [17] [µg/mL]	also measured
COc1c(C)c2c(c(O)c1C/C=C(\C)CCC(=O)O)C(=O)OC2 [MPA, mycophenolic acid, reference compound]	1	11	0.5	0.8	0.6	0.8	> 100	> 100	12	1.7	> 100										EC50 (Punta Toro Virus; Vero cells, visual CPE score, read-out: EC50 Punta Toro Virus, Visual CPE Score): 8.9 µM; Cytotoxicity MCC (minimum cytotoxic concentration) (Vero cell cultures): >100
COc1cc(NC(C)CCCN)c2ncccc2c1 (stereo not drawn) [PQ, primaquine, reference compound]	> 50	> 50	> 50						> 50			70	65	>100	65	70	50	>100	80	>100	IC50 [1]: 42.7 µM; IC50 [2]: 2.2 µM; IC50 [4]: 11.4 µM; EC50 (Reovirus-1; Vero, read-out: EC50 Reovirus-1, MTS): > 50 µM; IC50 [5]: 30.9 µM; IC50 (MM.1S (multiple myeloma)): 28.3 µM; IC50 [6]: 35.2 µM; IC50 [7]: 52.6 µM; IC50 [8]: 7.1 µM; IC50 [9]: 18.7 µM; EC50 (Coxsackie Virus B4; B4, Vero, read-out: EC50 Coxsackie Virus B4, MTS): > 50 µM; MBEC [18]: 50 µg/mL; MBEC [19]: 70 µg/mL
gentamycin [reference compound]												25	25	50	50	50	25	50	50	50	MBEC [18]: 12.5 µg/mL; MBEC [19]: 50 µg/mL
CN(C)[C@@H]1C(O)=C(C(N)=O)C(=O)[C@@]2(O)C(O)=C3C(=O)c4c(O)cccc4[C@@](C)(O)[C@H]3C[C@@H]12 [TC, tetracycline, reference compound]																					MIC [20]: 0.3 µg/mL (≈ 0.675 µM); MIC [21]: 0.3 µg/mL (≈ 0.675 µM); MIC [22]: 3 µg/mL (≈ 6.75 µM); MIC [23]: 0.3 µg/mL (≈ 0.675 µM); MIC [24]: 0.3 µg/mL (≈ 0.675 µM)
NC(=O)c1ncn([C@@H]2O[C@H](CO)[C@@H](O)[C@H]2O)n1 [RIB, ribavirin, reference compound]			119	> 250	107	126	> 250	> 250	> 250	11	> 250										EC50 (Para-Influenza-3 Virus; Vero, read-out: EC50 Para-Influenza-3 Virus, MTS): 73 µM; EC50 (Para-Influenza-3 Virus; Vero, read-out: EC50 Para-Influenza-3 Virus, Visual CPE Score): 111 µM; EC50 (Punta Toro Virus; Vero, read-out: EC50 Punta Toro Virus, MTS): 85 µM; EC50 (Punta Toro Virus; Vero, read-out: EC50 Punta Toro Virus, Visual CPE Score): 111 µM
C[C@@H]1[C@H](O)[C@@H](C)/C=C/C=C/C=C/C=C/C=C/C=C/C=C/[C@H](O[C@@H]2O[C@H](C)[C@@H](O)[C@H](N)[C@@H]2O)C[C@@H]2O[C@](O)(C[C@@H](O)C[C@@H](O)[C@H](O)CC[C@@H](O)C[C@@H](O)CC(=O)O[C@H]1C)C[C@H](O)[C@H]2C(=O)O [Amph, amphotericin B, reference compound]																					MIC [25]: 0.5 µg/mL (≈ 0.541 µM)
